We go through 1 compound from PMC5400620, “Preclinical therapeutic efficacy of a novel blood-brain barrier-penetrant dual PI3K/mTOR inhibitor with preferential response in PI3K/PTEN mutant glioma” (Oncotarget, 2017).

The term IC50 denotes the concentration needed to halve the response being measured. Lower therefore signals greater potency in that assay. Broadly, the viability is a read-out of living cells in per cent, often relative to untreated cells.

One series addresses p110α (Homo sapiens, UniProt P42336). Nature of the series: class I PI3K HTRF assay, p110α. The class given is biochemical. How it is done: (§1) DS7423 inhibits PI3K/mTOR activity likely binding to the ATP binding cleft of these enzymes and was tested against class I PI3K and other kinases using an HTRF assay format and direct measurement of substrate phosphorylation, respectively.
(Time-resolved FRET reads energy transfer from a long-lived donor to a nearby acceptor.)

In series [1] the test system is PI3K/mTOR signaling (pAkt, pS6). Nature of the series: pAkt and pS6 in U87 tumors or brain after a single PO dose. The class given is in vivo, mice. Particulars: single PO dose 6 mg/kg, compared with untreated animals. Here is the method:
(§2) Figure 1 A. and B. Plasma and brain concentration-time profile of DS7423 following a single PO administration (6 mg/kg) to nude mice. C. Western blot of mouse brains probed with antibodies against pAkt (Ser473) and pS6 (Ser235/236) in a time profile similar to that shown in A and B. Results are presented as the mean ± SE of six animals in each group.
To correlate DS brain concentration with the modulation of PI3K/mTOR signaling in U87 tumors, we used immunohistochemical analysis to study the signaling alterations in tumor sections derived from mice at similar time points following a single PO dose of DS (6 mg/kg). Tissue sections were probed with antibodies against pAkt and pS6. […] DS plasma and brain concentrations decreased after 24 hours, which correlated with an increase in pAkt and pS6.

Series [2] concerns glioma cell lines U87 and U251. Description: cell viability with DS, TMZ and the combination. Format: cell-based. The following applies: Homo sapiens, U-251, TMZ 200 μM, DS 200 nM, alone or combined. How it is done:
To investigate the ability of DS to modify the response of glioma cells to TMZ treatment, we evaluated the effects of TMZ (200 μM) alone, DS (200 nM) alone, and a combination of both TMZ and DS on the viability of the glioma cell lines U87 and U251 (Figure 5A).
The antiproliferative effect of DS on cells growing in culture was determined using the CellTiter-Blue (Promega, Madison, WI) viability assay. The mean drug concentration required to inhibit cell proliferation by 50% (IC50) compared with vehicle-treated controls was calculated using CalcuSyn Version 2.0 software (Great ShelfordCambridge, United Kingdom).

Series [3] can be described thus: pharmacokinetic study in mice, plasma and brain concentrations by LC-MS/MS. Format: in vivo, nude mice. Here is the method:
We studied the plasma concentration-time profile of DS following a single PO administration (6 mg/kg) in mice (Figure 1). Plasma concentrations remained generally constant and higher than 2 μmol/L up to 6 hours after treatment. The brain-to-plasma ratio of total concentrations remained unchanged and was approximately 0.1 between 1 and 6 hours after treatment (Figure 1A and 1B). Both plasma and brain DS concentrations decreased at 24 hours after treatment.
as §2
Mice were implanted with U87 cells intracranially as described previously. Twenty-one days after injection of the tumor cells,mice were randomized into groups. Mice were given a 6 mg/kg oral (PO) dose of DS. Blood samples of approximately 0.15 mL were collected from mice (n = 4 mice per time point) by retro-orbital bleeding in tubes containing K2EDTA as the anticoagulant pre-dose and at 2, 4, 6, and 24 hours post-dose. Plasma was collected and stored at −80°C until analysis. DS concentrations were determined by liquid chromatography-tandem mass spectrometry (LC-MS/MS) following plasma protein precipitation with acetonitrile and injection of the supernatant onto a TSK-GEL ODS-100V column (150 mm × 2 mm, 5 μm particle size). A Shimadzu 10A system (Shimadzu Corp., Kyoto, Japan) coupled with an AB Sciex API4000 triple-quadrupole mass spectrometer (Applied Biosystems, Foster City, CA) was used for the LC-MS/MS assay. […] DS and its internal standard ([^2H8]DS) were analyzed in the multiple reaction monitoring mode using the mass transitions of m/z 521→479 and 529→487, respectively. The lower and upper limits of quantitation were 2 and 5000-ng/mL10 μmol/L, respectively. […] For DS quantitation, mouse brains were homogenized in 3 volumes of 50% acetonitrile. […]

The next series has as its system Akt phosphorylation. Nature of the series: Western blot of PI3K signaling proteins in glioma cells. The class given is cell-based, human. The following applies: 200 nM DS. Here is the method: The levels of PI3K/mTOR signaling proteins, including pAkt, pS6 and P4EBP1 decreased in a dose- and time-dependent manner in all tested glioma cells (Figure 2A and 2B) as well as in the glioma tumor-initiating cell line GSC11 (Figure 2A and 2B). DS suppression of pAkt caused subsequent effects on Akt effectors such as 4EBP1 and S6 at 200-nM concentrations, and the maximum effects on Akt phosphorylation were observed 8 hours after 200 nM DS treatment.
Figure 2 DS7423 suppresses the PI3K signaling pathway in a dose- or time-dependent manner A. and B. Western blotting was performed to analyze the cellular protein levels of PI3K signaling proteins in U87 and LN229 glioma cells and GSC11 GICs. Cells were treated with the indicated doses of DS7423 for the indicated time intervals. DS7423 inhibited phosphorylation of the PI3K signaling components pAKT, pS6, and p4EBP1 in a time-dependent manner. D. Cells treated with the indicated doses of DS7423 for 24 hours. DS7423 inhibited phosphorylation of the PI3K signaling components pAKT, pS6, and p4EBP1 in a dose-dependent manner.
Cells were incubated with DS and then harvested and extracts were prepared for immunoblotting analysis. […]
On the technique in general: A western blot detects proteins with antibodies after separation by electrophoresis.

In the next series the test system is panel of 227 kinases. Nature of the series: representative panel of 227 kinases in biochemical assays. Particulars: greater than 50% inhibition only against 2 other kinases. How it is done: as §1
The target in another series is p110β (Homo sapiens, UniProt P42338). Description: class I PI3K HTRF assay, p110β. The class given is biochemical. How it is done:
as §1

Chain of p110α (P42336 whole entry): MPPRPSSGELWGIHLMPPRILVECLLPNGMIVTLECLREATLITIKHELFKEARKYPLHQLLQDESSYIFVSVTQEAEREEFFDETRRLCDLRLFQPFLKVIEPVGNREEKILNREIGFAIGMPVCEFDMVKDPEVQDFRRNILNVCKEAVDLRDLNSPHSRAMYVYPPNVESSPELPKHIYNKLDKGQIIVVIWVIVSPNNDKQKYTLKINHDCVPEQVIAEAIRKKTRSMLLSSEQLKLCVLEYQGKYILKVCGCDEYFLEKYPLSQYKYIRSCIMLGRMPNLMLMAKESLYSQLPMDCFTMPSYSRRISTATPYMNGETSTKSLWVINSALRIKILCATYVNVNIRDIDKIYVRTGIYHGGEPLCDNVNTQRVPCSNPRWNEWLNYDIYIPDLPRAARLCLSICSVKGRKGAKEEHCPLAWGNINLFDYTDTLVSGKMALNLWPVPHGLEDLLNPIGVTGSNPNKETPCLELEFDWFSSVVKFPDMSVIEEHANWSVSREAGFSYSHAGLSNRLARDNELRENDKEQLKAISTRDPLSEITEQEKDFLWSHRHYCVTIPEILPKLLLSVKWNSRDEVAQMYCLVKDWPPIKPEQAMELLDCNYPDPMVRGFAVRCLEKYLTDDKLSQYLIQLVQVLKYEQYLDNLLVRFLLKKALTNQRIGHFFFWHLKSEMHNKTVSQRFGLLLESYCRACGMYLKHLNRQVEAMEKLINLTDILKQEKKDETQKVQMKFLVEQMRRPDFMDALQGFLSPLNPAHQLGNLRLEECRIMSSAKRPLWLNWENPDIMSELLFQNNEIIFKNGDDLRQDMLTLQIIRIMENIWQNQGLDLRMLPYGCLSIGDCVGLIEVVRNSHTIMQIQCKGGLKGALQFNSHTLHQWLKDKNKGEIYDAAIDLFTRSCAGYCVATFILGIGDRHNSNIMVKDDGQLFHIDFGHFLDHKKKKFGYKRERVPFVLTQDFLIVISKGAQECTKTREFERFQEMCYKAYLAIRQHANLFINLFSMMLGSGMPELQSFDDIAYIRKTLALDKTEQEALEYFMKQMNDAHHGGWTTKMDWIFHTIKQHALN
Chain of p110α (P27986 whole entry partner): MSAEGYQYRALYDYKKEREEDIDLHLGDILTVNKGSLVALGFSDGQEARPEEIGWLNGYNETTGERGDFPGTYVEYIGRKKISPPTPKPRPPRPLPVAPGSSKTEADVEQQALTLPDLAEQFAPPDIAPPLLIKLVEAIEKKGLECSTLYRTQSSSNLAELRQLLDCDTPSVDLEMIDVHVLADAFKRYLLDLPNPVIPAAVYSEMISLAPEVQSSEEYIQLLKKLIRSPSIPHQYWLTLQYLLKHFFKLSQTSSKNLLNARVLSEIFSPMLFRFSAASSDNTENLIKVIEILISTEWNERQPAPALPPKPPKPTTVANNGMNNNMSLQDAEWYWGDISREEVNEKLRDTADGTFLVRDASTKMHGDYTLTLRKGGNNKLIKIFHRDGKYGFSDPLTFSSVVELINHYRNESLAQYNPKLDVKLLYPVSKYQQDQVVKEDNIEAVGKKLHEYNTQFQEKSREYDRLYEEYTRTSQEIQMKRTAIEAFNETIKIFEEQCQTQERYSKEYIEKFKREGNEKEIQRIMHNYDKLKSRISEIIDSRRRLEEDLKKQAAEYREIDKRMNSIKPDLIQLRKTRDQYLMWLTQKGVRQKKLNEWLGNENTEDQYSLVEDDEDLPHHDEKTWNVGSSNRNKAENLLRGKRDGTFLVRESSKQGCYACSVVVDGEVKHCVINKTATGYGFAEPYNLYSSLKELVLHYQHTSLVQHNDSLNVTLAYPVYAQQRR
Chain of p110β (P42338 whole entry): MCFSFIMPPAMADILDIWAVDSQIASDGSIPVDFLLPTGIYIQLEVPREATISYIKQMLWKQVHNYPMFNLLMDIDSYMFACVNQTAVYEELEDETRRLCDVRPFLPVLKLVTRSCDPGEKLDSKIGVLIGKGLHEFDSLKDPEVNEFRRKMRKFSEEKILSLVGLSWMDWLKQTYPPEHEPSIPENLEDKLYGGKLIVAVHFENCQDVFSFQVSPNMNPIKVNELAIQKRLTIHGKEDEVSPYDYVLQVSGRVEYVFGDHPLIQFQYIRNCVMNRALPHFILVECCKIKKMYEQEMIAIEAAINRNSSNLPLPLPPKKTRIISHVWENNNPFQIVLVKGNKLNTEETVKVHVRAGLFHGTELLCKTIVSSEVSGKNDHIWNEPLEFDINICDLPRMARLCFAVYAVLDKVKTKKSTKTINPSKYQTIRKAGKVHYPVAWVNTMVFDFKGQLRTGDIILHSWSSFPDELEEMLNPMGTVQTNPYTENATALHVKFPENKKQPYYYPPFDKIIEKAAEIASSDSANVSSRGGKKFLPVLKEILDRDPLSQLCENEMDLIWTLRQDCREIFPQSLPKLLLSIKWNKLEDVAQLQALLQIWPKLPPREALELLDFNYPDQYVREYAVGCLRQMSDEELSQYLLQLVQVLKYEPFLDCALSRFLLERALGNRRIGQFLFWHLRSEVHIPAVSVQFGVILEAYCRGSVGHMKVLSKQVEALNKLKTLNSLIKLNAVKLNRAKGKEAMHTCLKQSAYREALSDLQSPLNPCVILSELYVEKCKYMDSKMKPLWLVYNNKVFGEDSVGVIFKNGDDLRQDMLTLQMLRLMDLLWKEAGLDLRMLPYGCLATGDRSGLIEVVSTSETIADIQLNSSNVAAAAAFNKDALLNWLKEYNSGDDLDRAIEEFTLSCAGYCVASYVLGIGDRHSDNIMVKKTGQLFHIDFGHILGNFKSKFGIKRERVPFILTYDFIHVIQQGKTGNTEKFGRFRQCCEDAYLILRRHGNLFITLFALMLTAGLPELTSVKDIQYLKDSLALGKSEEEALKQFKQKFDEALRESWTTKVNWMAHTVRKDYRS
Chain of p110β (P27986 whole entry partner): as the sequence (P27986 whole entry partner) above

Take `CC(=O)N1CCN(c2nc3c(N4CCOCC4)nc(-c4cnc(N)nc4)nc3n2CC(F)(F)F)C[C@H]1C` [DS, 1-{(2R)-4-[2-(2-Aminopyrimidin-5-yl)-6-(morpholin-4-yl)-9-(2,2,2-trifluoroethyl)-9H-purin-8-yl]-2-methylpiperazin-1-yl}ethan-1-one]: the half-inhibitory concentration (IC50) against p110α turned out to be 17 nM; against p110β, 1140 nM. In addition, in series [1], the “pAkt and pS6 staining in U87 tumors” value is reported as “marked reduction”. Besides, the viability at 0.2 µM in series [2] was 63%. In series [3], the “concentration achievable in the mouse brains” value is recorded as 200 nM. In addition, the Kp at 6 h in series [3] (nude, mouse, brain and plasma, single PO 6 mg/kg, between 1 and 6 hours after treatment, read-out: brain-to-plasma ratio of total concentrations) is around 0.1. For the same compound, the plasma concentration entry in series [3] (single PO 6 mg/kg, up to 6 hours after treatment) was “higher than 2 μmol/L”. Also, the “time of maximum effects on Akt phosphorylation” value with Akt phosphorylation is 8 h. In addition, the “inhibition of a representative panel of 227 kinases” value in the series on panel of 227 kinases is “poorly inhibited”.
